Experimental data taken from ChEMBL document CHEMBL1201862, “PubChem BioAssay data set” (2004).
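Where inhibition never reached the appropriate level, the endpoint shown equals the highest concentration tested. Otherwise, values were interpolated linearly from a five-concentration, 48-hour dose response in 96-well plates. The concentration for 50% growth inhibition is given as GI50.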 Active and inactive are the calls of the source. Rule as the data show it: active = GI50 up to about 1.1 µM and inactive = higher.

What was measured:
Test in all cases: NCI anticancer screen, dose series, 48 h
[1] = system: UACC-257
[2] = system: SNB-19
[3] = system: NCI-H226
[4] = system: SNB-75
[5] = system: OVCAR-8
[6] = system: HCT-116
[7] = system: MOLT-4
[8] = system: SK-MEL-28
[9] = system: OVCAR-5
[10] = system: RPMI-8226
[11] = system: RXF 393
[12] = system: OVCAR-4
[13] = system: HCT-15
[14] = system: OVCAR-3
[15] = system: KM12
[16] = system: HL-60
[17] = system: HCC 2998
[18] = system: HOP-62

Structure (SMILES)	GI50 [1]	GI50 [2]	GI50 [3]	GI50 [4]	GI50 [5]	GI50 [6]	GI50 [7]	GI50 [8]	GI50 [9]	GI50 [10]	GI50 [11]	GI50 [12]	GI50 [13] [µM]	GI50 [14]	GI50 [15]	GI50 [16]	GI50 [17]	GI50 [18]
O=C(N/C(=C\c1ccc(Br)cc1)c1nc2ccccc2s1)c1ccccc1	> 100 µM (inactive)	47 µM (inactive)	> 100 µM (inactive)	> 100 µM (inactive)	89.9 µM (inactive)	53 µM (inactive)	29.9 µM (inactive)	> 100 µM (inactive)	> 100 µM (inactive)	32.5 µM (inactive)	43.4 µM (inactive)	30.8 µM (inactive)	46.1	> 100 µM (inactive)	> 100 µM (inactive)			
C=C[C@@H](C)[C@]1(C(=O)OC)CCCC12OCCO2	> 100 µM (inactive)	> 100 µM (inactive)	> 100 µM (inactive)	> 100 µM (inactive)	> 100 µM (inactive)	> 100 µM (inactive)	> 100 µM (inactive)	> 100 µM (inactive)	> 100 µM (inactive)	72.9 µM (inactive)	> 100 µM (inactive)	> 100 µM (inactive)	94.2	> 100 µM (inactive)	> 100 µM (inactive)	> 100 µM (inactive)	> 100 µM (inactive)	> 100 µM (inactive)
C=CCC1(C)CCCCC1(O)C[S+]([O-])c1ccccc1 (centres undefined)	> 100 µM (inactive)	> 100 µM (inactive)	20.9 µM (inactive)	> 100 µM (inactive)	> 100 µM (inactive)	> 100 µM (inactive)	> 100 µM (inactive)	> 100 µM (inactive)	> 100 µM (inactive)	33.7 µM (inactive)	> 100 µM (inactive)	> 100 µM (inactive)	> 100	> 100 µM (inactive)	> 100 µM (inactive)	54.5 µM (inactive)	> 100 µM (inactive)	> 100 µM (inactive)
CCOc1ccc(NC(=O)CC2SC(Nc3ccc(Cl)cc3)=NC2=O)cc1 (centres undefined)	> 100 µM (inactive)	> 100 µM (inactive)	> 100 µM (inactive)	29.8 µM (inactive)	49.7 µM (inactive)		29.4 µM (inactive)	> 100 µM (inactive)	> 100 µM (inactive)	58.6 µM (inactive)	40.8 µM (inactive)	> 100 µM (inactive)	95.3	> 100 µM (inactive)	> 100 µM (inactive)	24.2 µM (inactive)	> 100 µM (inactive)	> 100 µM (inactive)
O=S(=O)(O)SC/C=C\CSS(=O)(=O)O	> 100 µM (inactive)	> 100 µM (inactive)	> 100 µM (inactive)	> 100 µM (inactive)	> 100 µM (inactive)	> 100 µM (inactive)	35.8 µM (inactive)	> 100 µM (inactive)	> 100 µM (inactive)	> 100 µM (inactive)	> 100 µM (inactive)	> 100 µM (inactive)	65.8	> 100 µM (inactive)	> 100 µM (inactive)	> 100 µM (inactive)	> 100 µM (inactive)	> 100 µM (inactive)
O=c1ccc2ccc(O)c3c4c(O)ccc5ccc(=O)c(c1c23)c54	1.49 µM (inactive)	2.18 µM (inactive)	2.04 µM (inactive)		1.46 µM (inactive)	1.43 µM (inactive)	2.11 µM (inactive)	1.14 µM (inactive)		2.9 µM (inactive)	1.17 µM (inactive)		1.26	0.964 µM (active)	1.24 µM (inactive)	1.09 µM (active)		2.72 µM (inactive)
O=C(NC1CCCCC1)NS(=O)(=O)c1ccc2c(c1)CCC2 [GLYHEXAMIDE]	> 100 µM (inactive)	> 100 µM (inactive)	> 100 µM (inactive)	> 100 µM (inactive)	> 100 µM (inactive)		> 100 µM (inactive)	> 100 µM (inactive)	> 100 µM (inactive)	> 100 µM (inactive)	> 100 µM (inactive)		> 100	> 100 µM (inactive)	> 100 µM (inactive)	> 100 µM (inactive)	> 100 µM (inactive)	
O=c1/c(=C/c2ccc3c(c2)OCO3)sc2nnc(Cc3ccccc3)n12	13.1 µM (inactive)	> 100 µM (inactive)	> 100 µM (inactive)	61.1 µM (inactive)	> 100 µM (inactive)	> 100 µM (inactive)	> 100 µM (inactive)	> 100 µM (inactive)	> 100 µM (inactive)	34.5 µM (inactive)	> 100 µM (inactive)	> 100 µM (inactive)	> 100	> 100 µM (inactive)	> 100 µM (inactive)	> 100 µM (inactive)	81.8 µM (inactive)	> 100 µM (inactive)
O=C(N/N=C1/C(=O)N(c2ccc(Cl)cc2Cl)C(=O)C(=O)C1c1nc2ccccc2o1)c1ccccc1O (centres undefined)		49.7 µM (inactive)	> 100 µM (inactive)	43.3 µM (inactive)	60.4 µM (inactive)	37.2 µM (inactive)	34.7 µM (inactive)	29.6 µM (inactive)	> 100 µM (inactive)	43.4 µM (inactive)			37.8	21.8 µM (inactive)	42.4 µM (inactive)			28.7 µM (inactive)
CCCCCCCCCCCCC(SCCNC(=O)CCNC(=O)C(O)C(C)(C)COP(=O)(O)OP(=O)(O)OCC1OC(n2cnc3c(N)ncnc32)C(O)C1OP(=O)(O)O)C(=O)NCC(N)=O (centres undefined)	> 100 µM (inactive)	66.7 µM (inactive)	79.6 µM (inactive)	2.6 µM (inactive)	> 100 µM (inactive)	41.3 µM (inactive)		> 100 µM (inactive)	> 100 µM (inactive)		36 µM (inactive)	> 100 µM (inactive)	> 100	> 100 µM (inactive)	> 100 µM (inactive)	72.9 µM (inactive)	> 100 µM (inactive)	> 100 µM (inactive)
CCOc1ccc(N2C(=O)C3c4[nH]c5ccccc5c4C4CCC(C(C)(C)C)CC4C3C2=O)cc1 (centres undefined)	> 100 µM (inactive)	> 100 µM (inactive)	56.5 µM (inactive)	> 100 µM (inactive)	97.1 µM (inactive)	49.2 µM (inactive)	> 100 µM (inactive)	> 100 µM (inactive)		> 100 µM (inactive)	21.8 µM (inactive)	> 100 µM (inactive)	> 100			44.9 µM (inactive)	28.8 µM (inactive)	> 100 µM (inactive)
Oc1ccc2c(c1)CC[N+]1=C2CCC2CCCC21 (centres undefined) [QUINDONIUM BROMIDE]		> 100 µM (inactive)	> 100 µM (inactive)	> 100 µM (inactive)	> 100 µM (inactive)	> 100 µM (inactive)		> 100 µM (inactive)	> 100 µM (inactive)		> 100 µM (inactive)	> 100 µM (inactive)	> 100	> 100 µM (inactive)			> 100 µM (inactive)	
O=[N+]([O-])c1cccc(Nc2nc(Cl)nc(Cl)n2)c1	> 100 µM (inactive)	> 100 µM (inactive)	> 100 µM (inactive)	> 100 µM (inactive)	> 100 µM (inactive)	> 100 µM (inactive)	> 100 µM (inactive)	> 100 µM (inactive)	> 100 µM (inactive)	> 100 µM (inactive)		34.4 µM (inactive)	> 100	> 100 µM (inactive)	> 100 µM (inactive)		> 100 µM (inactive)	> 100 µM (inactive)
COC(=O)C1(C)C=C(Nc2ccccc2)C(=O)N1c1ccccc1 (centres undefined)	> 100 µM (inactive)	> 100 µM (inactive)	> 100 µM (inactive)		> 100 µM (inactive)	> 100 µM (inactive)	> 100 µM (inactive)	> 100 µM (inactive)	> 100 µM (inactive)	> 100 µM (inactive)	> 100 µM (inactive)	> 100 µM (inactive)		> 100 µM (inactive)	> 100 µM (inactive)	> 100 µM (inactive)	> 100 µM (inactive)	> 100 µM (inactive)
COc1cc(O)c(C(=O)CC(C)=O)c(OC)c1	> 100 µM (inactive)	> 100 µM (inactive)	> 100 µM (inactive)	76.4 µM (inactive)	> 100 µM (inactive)	> 100 µM (inactive)	> 100 µM (inactive)	> 100 µM (inactive)	> 100 µM (inactive)	> 100 µM (inactive)	> 100 µM (inactive)	> 100 µM (inactive)		> 100 µM (inactive)	> 100 µM (inactive)	> 100 µM (inactive)	> 100 µM (inactive)	> 100 µM (inactive)
COC(=O)[C@H]1CC(=O)C=C2CCCC21 (some centres undefined)	> 100 µM (inactive)	> 100 µM (inactive)		> 100 µM (inactive)	> 100 µM (inactive)	> 100 µM (inactive)	> 100 µM (inactive)	> 100 µM (inactive)		> 100 µM (inactive)	> 100 µM (inactive)	> 100 µM (inactive)	> 100	> 100 µM (inactive)	> 100 µM (inactive)	> 100 µM (inactive)	> 100 µM (inactive)	> 100 µM (inactive)
CC(=O)N1CCc2[nH]c3ccccc3c2CC1	> 100 µM (inactive)			19.9 µM (inactive)	> 100 µM (inactive)	> 100 µM (inactive)	> 100 µM (inactive)	> 100 µM (inactive)	> 100 µM (inactive)	> 100 µM (inactive)		> 100 µM (inactive)	> 100	> 100 µM (inactive)	> 100 µM (inactive)	> 100 µM (inactive)	> 100 µM (inactive)	> 100 µM (inactive)
